Literature values, collected in US20020151447A1, “Reduced toxicity 1-bromopropane cleaning agent production process” (POLYMER SOLVENTS, INC., priority 1997, published 2002).

Key:
mammals = details: in vivo
[1] = 8 hour workday

In the case of CCCBr [1-bromopropane], the toxicity to mammals (mammals) is listed as “relatively low toxicity” and the “workplace exposure limit for handlers” value [1] is listed as 100 ppm.
